# Laboratory results published in article PMC10318822, “Phase 1 dose-escalation study to evaluate the safety, tolerability, pharmacokinetics, and anti-tumor activity of FCN-159 in adults with neurofibromatosis type 1-related unresectable plexiform neurofibromas” (BMC Medicine, 2023).
# Entries after “also recorded” stand apart in the source; their conditions may differ.
# What was measured:
# NF1-related PN = experiment: Tumor response by MRI volumetric analysis (Response Evaluation in Neurofibromatosis Schwannomatosis criteria); type: in vivo, human; details: for Best overall response: Complete response / Best overall response: Disease progression / Best overall response: Not evaluable / Best overall response: Partial response / Best overall response: Stable disease: Investigator assessments
# Source text: Primary endpoints of the study were the DLT incidence rate, MTD, and RP2D. Secondary endpoints included other safety assessments, imaging tumor response (complete response [CR], PR, stable disease [SD], or progressive disease [PD]), and PK parameters of FCN-159. Adverse events were graded per CTCAE v5.0.
# All patients underwent a complete medical history, physical examination, Eastern Cooperative Oncology Group (ECOG) assessment, and laboratory analysis of test results. Drug-related TEAEs, serious adverse events (SAEs), TEAEs of grade ≥ 3 toxicity, and TEAEs leading to drug discontinuation were reviewed on an ongoing basis. Efficacy was assessed by radiologic scans and clinical assessment. Tumor assessments per Response Evaluation in Neurofibromatosis Schwannomatosis criteria were performed by investigators using MRI volumetric analysis every 4 cycles within the first 2 years (± 7 days) and every 6 cycles after 2 years (± 14 days) until PD, death, patient's voluntary withdrawal from study treatment, or study termination. MRI sequences of […], T1- and T2-weighted sequences were chosen and the software of Extended Brilliance Workspace, SIGNA Premier and uExceed were used for MRI volumetric analysis. The same software was used for all tumor assessments at baseline and subsequent assessed timepoints of the same patient. Pain was assessed by an 11-point numerical rating scale (NRS-11).
# [1] = Plasma pharmacokinetics of FCN-159, non-compartmental analysis; type: in vivo, human; details: for AUCtau / CLss/F / Cavg,ss / Cmax,ss / Cmin,ss / ARAUC0-t / ARCmax / AUC0-t / AUC0-∞ / CL/F / Cmax / T1/2 / Vd/F: Geomean; for ARAUC0-t: AUC0-t (steady state) / AUC0-t; for ARCmax: Cmax (steady state) / Cmax; for Tmax: median
# Method: In order to study the PK characteristics of FCN-159 in plasma, blood samples were collected pre-dose and 0.5, 1, 2, 3, 4, 6, and 10 h post dose on days 1 and 28 of cycle 1, and pre-dose only on days 2, 8, and 15 of cycle 1 and day 1 of cycle 2. Plasma PK parameters of FCN-159 in each dose group were analyzed with standard non-compartmental PK methods using Phoenix WinNonlin, v8.2. PK parameters included area under the curve (AUC)(0-last), AUC(0-∞), maximum plasma concentration (Cmax), time to maximum plasma concentration (Tmax), half-life (T1/2), oral clearance (CL/F), and volume of distribution (Vd/F) for the single-dose regimen and AUC(0-tau), Cmax, Tmax, minimum steady-state plasma concentration (Css,min), mean steady-state plasma concentration (Css, avg), accumulation ratio for AUC (ARAUC), and apparent oral clearance at steady state (CLss/F) for the multiple dose regimen.
# Data were summarized using descriptive statistics.
# Dose proportionality is assessed by fitting the relationship of the ln-transformed PK parameters (Cmax, AUC) to the ln-transformed dose using a power model loge(Y)=α+βloge(Dose)+ε.
# CYP3A4 = test system: CYP3A4; set-up: method as in PMID 36755948; details: in vitro study; cited from earlier work
# [2] = test system: MAPK pathway (phosphorylation of MEK kinase and intracellular ERK); set-up: method as in doi:10.1158/1538-7445.AM2020-1951; details: human colon cancer cells; preventing phosphorylation of MEK kinase and intracellular ERK; cited from earlier work
# [3] = test system: RAS-mutant tumor cell lines; set-up: method as in doi:10.1158/1538-7445.AM2020-1951; details: selected RAS-mutant tumor cell lines; cited from earlier work
# [4] = test system: xenograft models (including human melanoma A375); set-up: method as in doi:10.1158/1538-7445.AM2020-1951; details: nude mouse xenograft models (including human melanoma A375); cited from earlier work
# [5] = set-up: method as in PMID 36627544; details: healthy volunteers, compared with fasted state; cited from earlier work
smiles,measurement,setting,value
Cn1c(=O)c(F)c(Nc2ccc(I)cc2F)c2c(=O)n(C3CC3)nc(-c3cccc(NS(=O)(=O)C4CC4)c3)c21 [FCN-159],Best overall response: Complete response,NF1-related PN; 4 mg (n = 3),0 n (%)
same,Best overall response: Disease progression,NF1-related PN; 4 mg (n = 3),0 n (%)
same,Best overall response: Not evaluable,NF1-related PN; 4 mg (n = 3),0 n (%)
same,Best overall response: Partial response,NF1-related PN; 4 mg (n = 3),1 (33.3) n (%)
same,Best overall response: Stable disease,NF1-related PN; 4 mg (n = 3),2 (66.7) n (%)
same,Best overall response: Complete response,NF1-related PN; 6 mg (n = 4),0 n (%)
same,Best overall response: Disease progression,NF1-related PN; 6 mg (n = 4),0 n (%)
same,Best overall response: Not evaluable,NF1-related PN; 6 mg (n = 4),0 n (%)
same,Best overall response: Partial response,NF1-related PN; 6 mg (n = 4),2 (50.0) n (%)
same,Best overall response: Stable disease,NF1-related PN; 6 mg (n = 4),2 (50.0) n (%)
same,Best overall response: Complete response,NF1-related PN; 8 mg (n = 5),0 n (%)
same,Best overall response: Disease progression,NF1-related PN; 8 mg (n = 5),0 n (%)
same,Best overall response: Not evaluable,NF1-related PN; 8 mg (n = 5),0 n (%)
same,Best overall response: Partial response,NF1-related PN; 8 mg (n = 5),2 (40.0) n (%)
same,Best overall response: Stable disease,NF1-related PN; 8 mg (n = 5),3 (60.0) n (%)
same,Best overall response: Complete response,NF1-related PN; 12 mg (n = 4),0 n (%)
same,Best overall response: Disease progression,NF1-related PN; 12 mg (n = 4),0 n (%)
same,Best overall response: Not evaluable,NF1-related PN; 12 mg (n = 4),0 n (%)
same,Best overall response: Partial response,NF1-related PN; 12 mg (n = 4),1 (25.0) n (%)
same,Best overall response: Stable disease,NF1-related PN; 12 mg (n = 4),3 (75.0) n (%)
same,Patients with progressive disease (PD),NF1-related PN; 16 evaluable patients,none experienced PD; also recorded: zero patients had PD
same,Patients with reduced tumor volume,NF1-related PN; 16 patients with at least one post-baseline tumor assessment,100%
same,Best overall response: Complete response,NF1-related PN; Total (n = 16),0 n (%)
same,Best overall response: Disease progression,NF1-related PN; Total (n = 16),0 n (%)
same,Best overall response: Not evaluable,NF1-related PN; Total (n = 16),0 n (%)
same,Best overall response: Partial response,NF1-related PN; Total (n = 16),6 (37.5) n (%)
same,Best overall response: Stable disease,NF1-related PN; Total (n = 16),10 (62.5) n (%)
same,Largest reduction in tumor volume,NF1-related PN; in vivo,84.2%
same,Patients achieving partial responses,NF1-related PN; six of 16 evaluable patients,37.5%
same,Dose proportionality of exposure,"[1]; Cmax and AUCtau at steady state 4–8 mg, PK profile between 4 and 12 mg",approximately linear; also recorded: roughly dose proportional
same,Median Tmax,[1]; across all dosing regimens,1.21 to 2.18 h
same,Mean accumulation ratio of AUC,[1]; from each cohort,1.5–2.0
same,AUCtau,"[1]; multiple dose, 4 mg, N 3",392 ng·h/mL
same,CLss/F,"[1]; multiple dose, 4 mg, N 3",10.2 L/h
same,"Cavg,ss","[1]; multiple dose, 4 mg, N 3",16.3 ng/mL
same,"Cmax,ss","[1]; multiple dose, 4 mg, N 3",45.0 ng/mL
same,"Cmin,ss","[1]; multiple dose, 4 mg, N 3",8.54 ng/mL
same,ARAUC0-t,"[1]; multiple dose, 4 mg, N 3",1.56
same,ARCmax,"[1]; multiple dose, 4 mg, N 3",1.25
same,Tmax,"[1]; multiple dose, 4 mg, N 3",1.92 h
same,AUCtau,"[1]; multiple dose, 6 mg, N 4",532 ng·h/mL
same,CLss/F,"[1]; multiple dose, 6 mg, N 4",11.3 L/h
same,"Cavg,ss","[1]; multiple dose, 6 mg, N 4",22.2 ng/mL
same,"Cmax,ss","[1]; multiple dose, 6 mg, N 4",52.2 ng/mL
same,"Cmin,ss","[1]; multiple dose, 6 mg, N 4",12.2 ng/mL
same,ARAUC0-t,"[1]; multiple dose, 6 mg, N 4",2.03
same,ARCmax,"[1]; multiple dose, 6 mg, N 4",1.37
same,Tmax,"[1]; multiple dose, 6 mg, N 4",1.24 h
same,AUCtau,"[1]; multiple dose, 8 mg, N 7",723 ng·h/mL
same,CLss/F,"[1]; multiple dose, 8 mg, N 7",11.1 L/h
same,"Cavg,ss","[1]; multiple dose, 8 mg, N 7",30.1 ng/mL
same,"Cmax,ss","[1]; multiple dose, 8 mg, N 7",82.5 ng/mL
same,"Cmin,ss","[1]; multiple dose, 8 mg, N 7",15.4 ng/mL
same,ARAUC0-t,"[1]; multiple dose, 8 mg, N 7",1.75
same,ARCmax,"[1]; multiple dose, 8 mg, N 7",1.36
same,Tmax,"[1]; multiple dose, 8 mg, N 7",1.50 h
same,AUC0-t,"[1]; single dose, 4 mg, N 3",250 ng·h/mL
same,AUC0-∞,"[1]; single dose, 4 mg, N 3",370 ng·h/mL
same,CL/F,"[1]; single dose, 4 mg, N 3",10.8 L/h
same,Cmax,"[1]; single dose, 4 mg, N 3",36.0 ng/mL
same,T1/2,"[1]; single dose, 4 mg, N 3",16.2 h
same,Vd/F,"[1]; single dose, 4 mg, N 3",253 L
same,Tmax,"[1]; single dose, 4 mg, N 3",1.43 h
same,AUC0-t,"[1]; single dose, 6 mg, N 4",262 ng·h/mL
same,AUC0-∞,"[1]; single dose, 6 mg, N 4",388 ng·h/mL
same,CL/F,"[1]; single dose, 6 mg, N 4",15.4 L/h
same,Cmax,"[1]; single dose, 6 mg, N 4",38.1 ng/mL
same,T1/2,"[1]; single dose, 6 mg, N 4",11.4 h
same,Vd/F,"[1]; single dose, 6 mg, N 4",254 L
same,Tmax,"[1]; single dose, 6 mg, N 4",1.48 h
same,AUC0-t,"[1]; single dose, 8 mg, N 8",453 ng·h/mL
same,AUC0-∞,"[1]; single dose, 8 mg, N 8",661 ng·h/mL
same,CL/F,"[1]; single dose, 8 mg, N 8",12.1 L/h
same,Cmax,"[1]; single dose, 8 mg, N 8",64.2 ng/mL
same,T1/2,"[1]; single dose, 8 mg, N 8",15.4 h
same,Vd/F,"[1]; single dose, 8 mg, N 8",269 L
same,Tmax,"[1]; single dose, 8 mg, N 8",1.21 h
same,AUC0-t,"[1]; single dose, 12 mg, N 4",1050 ng·h/mL
same,AUC0-∞,"[1]; single dose, 12 mg, N 4",1330 ng·h/mL
same,CL/F,"[1]; single dose, 12 mg, N 4",9.03 L/h
same,Cmax,"[1]; single dose, 12 mg, N 4",147 ng/mL
same,T1/2,"[1]; single dose, 12 mg, N 4",11.7 h
same,Vd/F,"[1]; single dose, 12 mg, N 4",153 L
same,Tmax,"[1]; single dose, 12 mg, N 4",2.18 h
same,Metabolism,CYP3A4,metabolized primarily by CYP3A4
same,Effect on downstream MAPK pathway,[2],blocks the downstream MAPK pathway
same,Cell proliferation,[3],inhibiting cell proliferation
same,Tumor growth,[4],Anti-tumor activity was observed
same,Food effect on pharmacokinetic profile,[5],food did not affect the pharmacokinetic profile
